Tests used:
Format in all cases: cell-based
[1] = tested on: KRAS^G12A-NSCLC H1573 cell line; experiment: Ex vivo Edu proliferation test (MI, GI %), H1573; details: Table 1; 4 days; uM: osimertinib 0.5, afatinib 0.2, cobimetinib 0.4, trametinib 0.02, TAK-733 0.18, palbociclib 0.15, ribociclib 5
Experimental: (§1) For ex vivo drug testing, the cells were exposed to a combination of drugs or single drugs for 4 days or 7 days. Following exposure with drug, 1,000-5,000 cells were labeled with 5-ethynyl-2′-deoxyuridine (Edu) to assess the tumor cell proliferation rates. The labeling lasted 24 hours in the presence of drug exposure. In the control group, epithelial tumor cells received no drug exposure with media change (with 0.1% DMSO), but were similarly labeled with Edu. The labeled cells were fixed and blocked with 3% BSA and 0.5% Triton X-100 for 2 hours at room temperature, followed by staining with Hoechst 33342 and EpCAM antibody (1:4000) in PBS solution containing 0.5% Triton X-100 overnight at 4° C. Subsequently, the cells were rinsed with PBST then incubated with Alexa Fluor® 647 conjugated goat-antimouse secondary antibody for 30 minutes at room temperature.
(§2) The incorporated Edu was detected by Click-iT reaction where fixed cells were incubated with a reaction mixture containing 1× Click-iT Edu reaction buffer, CuSO4, and azide-conjugated Alexa Fluor dye in the dark. The stained cells were washed with PBS two times before image acquisition and analysis.
(§3) For image acquisition and analysis, the stained tumor cells were imaged by a high-content screening (HCS) platform (Thermo Scientific CellomicsArrayScanXTi HCS reader). The 10× objective was used to collect images. Twenty-five fields were imaged for each well for the analysis. From the images three fluorescent signals were obtained from the HCS reader. Blue fluorescent signals recorded nucleus signals stained with Hoechst 33342, green fluorescent signal detected the Edu incorporated in newly synthesized DNA, and red fluorescent signal detected the EpCAM positive epithelial cells population.
The MI (Maximum Inhibition Index) was calculated using the EpCAM and Edu positive readout (Tables 1-4). MI=Edu positive cells in control/Edu positive cells in treatment. MI4 indicates an MI value after 4 days of treatment and MI7 indicates an MI values after 7 days of treatment. […] GI % is calculated as GI %=(1−1/MI)*100%.

[2] = tested on: KRAS^G12A-NSCLC H2009 cell line; experiment: Ex vivo Edu proliferation test (MI, GI %), H2009; details: Table 1; 4 days; uM: osimertinib 0.5, afatinib 0.2, cobimetinib 0.4, trametinib 0.02, TAK-733 0.18, palbociclib 0.15, ribociclib 5
Experimental: as §1, §2, §3
(§4) The MI (Maximum Inhibition Index) was calculated using the EpCAM and Edu positive readout (Tables 1-4). MI=Edu positive cells in control/Edu positive cells in treatment. MI4 indicates an MI value after 4 days of treatment and MI7 indicates an MI values after 7 days of treatment. The MI and growth inhibition rate (GI %) values for KRAS^G12A-NSCLC (H1573 and H2009), KRAS^G12C-NSCLC (H358, H23 and H2030), KRAS^G12V-NSCLC (H2291 and H2444) and KRAS^G12D-NSCLC (H1588 and SK-LU-1) cell lines are shown in Tables 1-4, respectively. GI % is calculated as GI %=(1−1/MI)*100%.

[3] = tested on: KRAS^G12C-NSCLC H358 cell line; experiment: Ex vivo Edu proliferation test (MI, GI %), H358; details: Table 2a; 7 days; uM: osimertinib 0.5, afatinib 0.2, cobimetinib 0.4, trametinib 0.02, palbociclib 0.15, ribociclib 5
Experimental: as §1, §2, §3, §4

[4] = tested on: KRAS^G12C-NSCLC H23 cell line; experiment: Ex vivo Edu proliferation test (MI, GI %), H23; details: Table 2a; 7 days; uM: osimertinib 0.5, afatinib 0.2, cobimetinib 0.4, trametinib 0.02, palbociclib 0.15, ribociclib 5
Experimental: as §1, §2, §3, §4

[5] = tested on: KRAS^G12C-NSCLC H2030 cell line; experiment: Ex vivo Edu proliferation test (MI, GI %), H2030; details: Table 2a; 7 days; uM: osimertinib 0.5, afatinib 0.2, cobimetinib 0.4, trametinib 0.02, palbociclib 0.15, ribociclib 5
Experimental: as §1, §2, §3, §4

[6] = tested on: KRAS^G12V-NSCLC H2291 cell line; experiment: Ex vivo Edu proliferation test (MI, GI %), H2291; details: Table 3; 7 days; uM: osimertinib 0.5, afatinib 0.2, trametinib 0.02, TAK-733 0.18, palbociclib 0.15, ribociclib 5
Experimental: as §1, §2, §3, §4

[7] = tested on: KRAS^G12V-NSCLC H2444 cell line; experiment: Ex vivo Edu proliferation test (MI, GI %), H2444; details: Table 3; 4 days; uM: osimertinib 0.5, afatinib 0.2, trametinib 0.02, TAK-733 0.18, palbociclib 0.15, ribociclib 5
Experimental: as §1, §2, §3, §4

[8] = tested on: KRAS^G12D-NSCLC H1588 cell line; experiment: Ex vivo Edu proliferation test (MI, GI %), H1588; details: Table 4; 4 days; uM: osimertinib 0.5, afatinib 0.2, cobimetinib 0.4, trametinib 0.02, TAK-733 0.18, palbociclib 0.15, ribociclib 5
Experimental: as §1, §2, §3, §4

[9] = tested on: KRAS^G12D-NSCLC SK-LU-1 cell line; experiment: Ex vivo Edu proliferation test (MI, GI %), SK-LU-1; details: Table 4; 4 days; uM: osimertinib 0.5, afatinib 0.2, cobimetinib 0.4, trametinib 0.02, TAK-733 0.18, palbociclib 0.15, ribociclib 5
Experimental: as §1, §2, §3, §4

CC(=O)Nc1cccc(-n2c(=O)n(C3CC3)c(=O)c3c(Nc4ccc(I)cc4F)n(C)c(=O)c(C)c32)c1 [Trametinib, trametinib]
GI % (Growth Inhibition Rate), H1573 [1]: 87.80%
MI 4 (Maximum Inhibition Index), H1573 [1]: 8.20
GI % (Growth Inhibition Rate), H2009 [2]: 65.93%
MI 4 (Maximum Inhibition Index), H2009 [2]: 2.93
GI % (Growth Inhibition Rate), H358 [3]: 20.76%
MI 7 (Maximum Inhibition Index), H358 [3]: 1.26
GI % (Growth Inhibition Rate), H23 [4]: 1.20%
MI 7 (Maximum Inhibition Index), H23 [4]: 1.01
GI % (Growth Inhibition Rate), H2030 [5]: 64.45%
MI 7 (Maximum Inhibition Index), H2030 [5]: 2.81
GI % (Growth Inhibition Rate), H2291 [6]: 75.62%
MI 7 (Maximum Inhibition Index), H2291 [6]: 4.11
GI % (Growth Inhibition Rate), H2444 [7]: 87.22%
MI 4 (Maximum Inhibition Index), H2444 [7]: 7.82
GI % (Growth Inhibition Rate), H1588 [8]: 45.63%
MI 4 (Maximum Inhibition Index), H1588 [8]: 1.84
GI % (Growth Inhibition Rate), SK-LU-1 [9]: 47.99%
MI 4 (Maximum Inhibition Index), SK-LU-1 [9]: 1.92

Reference: patent publication US20230310436A1, “COMBINATION THERAPY FOR CANCERS WITH KRAS MUTATION” (COTHERA BIOSCIENCE, INC., priority 2019, published 2023)
